Cc1ccc(CO)cc1
solubility (mole fraction)
Conditions | 278.15 K | 283.15 K | 288.15 K | 293.15 K | 298.15 K | 303.15 K | 308.15 K | 313.15 K
in 1,2-dichloroethane | 0.166 | 0.214 | 0.28 | 0.343 | 0.418 | 0.506 | 0.585 | 0.685
in acetone | 0.226 | 0.272 | 0.321 | 0.384 | 0.431 | 0.497 | 0.568 | 0.642
in acetonitrile | 0.162 | 0.214 | 0.287 | 0.361 | 0.454 | 0.548 | 0.638 | 0.735
in dichloromethane | 0.4 | 0.429 | 0.466 | 0.502 | 0.537 | 0.588 | 0.646 | 0.729
in ethanol | 0.236 | 0.276 | 0.327 | 0.379 | 0.44 | 0.508 | 0.581 | 0.662
in ethyl acetate | 0.215 | 0.259 | 0.308 | 0.369 | 0.433 | 0.511 | 0.587 | 0.671
in ethyl formate | 0.152 | 0.191 | 0.242 | 0.303 | 0.372 | 0.449 | 0.537 | 0.62
in isobutanol | 0.231 | 0.275 | 0.321 | 0.373 | 0.446 | 0.513 | 0.594 | 0.667
in isopropanol | 0.248 | 0.283 | 0.33 | 0.386 | 0.448 | 0.527 | 0.597 | 0.674
in n-butanol | 0.252 | 0.287 | 0.334 | 0.385 | 0.45 | 0.51 | 0.584 | 0.698
in n-propanol | 0.253 | 0.293 | 0.34 | 0.398 | 0.454 | 0.518 | 0.595 | 0.674

Source: BigSolDB 2.1
